Experimental data reported in BindingDB's records for doi:10.1021/jm040903t (Sapienza University of Rome, 2005).

What was measured:
[1] = target: T1, Amine oxidase [flavin-containing] B (Bos taurus, UniProt P56560); assay: MAO Inhibition Assay; conditions: pH 7.4; 38 °C
T1 sequence (P56560 whole entry): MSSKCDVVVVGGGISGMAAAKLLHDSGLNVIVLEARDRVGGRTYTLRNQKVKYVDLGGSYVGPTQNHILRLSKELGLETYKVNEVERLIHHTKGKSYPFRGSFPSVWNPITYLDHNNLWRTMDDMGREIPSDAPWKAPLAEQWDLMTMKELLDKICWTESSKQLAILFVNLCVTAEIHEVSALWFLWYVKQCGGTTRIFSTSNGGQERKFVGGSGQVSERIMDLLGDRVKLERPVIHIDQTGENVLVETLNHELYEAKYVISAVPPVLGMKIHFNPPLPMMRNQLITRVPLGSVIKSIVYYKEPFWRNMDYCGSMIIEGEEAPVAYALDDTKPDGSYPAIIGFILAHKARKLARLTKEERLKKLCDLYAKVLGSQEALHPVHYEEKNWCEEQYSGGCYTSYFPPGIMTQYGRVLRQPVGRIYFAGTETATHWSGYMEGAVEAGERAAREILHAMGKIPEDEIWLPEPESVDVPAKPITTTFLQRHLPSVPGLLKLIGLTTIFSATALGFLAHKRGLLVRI
Experimental: (§1) MAO A and MAO B activities were determined […] using kynuramine as substrates. Fluorimetric measurements were recorded with a Perkin-Elmer LS 50B spectrofluorimeter. Dixon plots were used to estimate the inhibition constant (Ki) of the inhibitors. The data are the mean values of three or more experiments performed in duplicate.

[2] = target: T2, Amine oxidase [flavin-containing] A (Bos taurus, UniProt P21398); assay: MAO Inhibition Assay; conditions: pH 7.4; 38 °C
T2 sequence (P21398 whole entry): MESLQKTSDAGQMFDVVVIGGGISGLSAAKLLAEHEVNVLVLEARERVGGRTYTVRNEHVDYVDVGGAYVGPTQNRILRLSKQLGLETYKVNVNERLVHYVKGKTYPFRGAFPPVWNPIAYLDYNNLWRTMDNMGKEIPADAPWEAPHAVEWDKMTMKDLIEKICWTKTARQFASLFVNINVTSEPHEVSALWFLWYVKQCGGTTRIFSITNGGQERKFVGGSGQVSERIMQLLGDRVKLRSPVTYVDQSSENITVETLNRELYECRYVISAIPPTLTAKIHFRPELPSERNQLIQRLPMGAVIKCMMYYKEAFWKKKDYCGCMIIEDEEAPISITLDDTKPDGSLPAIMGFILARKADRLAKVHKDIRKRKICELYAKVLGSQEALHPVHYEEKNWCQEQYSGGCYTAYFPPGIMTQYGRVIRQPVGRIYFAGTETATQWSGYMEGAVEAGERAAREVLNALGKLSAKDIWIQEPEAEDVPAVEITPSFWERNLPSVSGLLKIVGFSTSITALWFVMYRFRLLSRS
Experimental: as §1

SMILES: Cc1ccc(C2=NN(C(N)=S)C(c3ccc(Cl)cc3)C2)cc1 (configuration not stated) [5-(4-chlorophenyl)-3-(4-methylphenyl)-4,5-dihydro-1H-pyrazole-1-carbothioamide]
- Ki [1]: 1.5 nM

SMILES: NC(=S)N1N=C(c2ccc(F)cc2)C[C@H]1c1ccc(Cl)cc1 [(5S)-5-(4-chlorophenyl)-3-(4-fluorophenyl)-4,5-dihydro-1H-pyrazole-1-carbothioamide]
- Ki [2]: 5 nM
